The record followed here is patent publication US20210238197A1, “NOVEL OXOQUINOLIZINE COMPOUNDS FOR THE TREATMENT AND PROPHYLAXIS OF BACTERIAL INFECTION” (Hoffmann-La Roche Inc., priority 2018, published 2021).

For data set [1], the system named is S. aureus (ATCC29213). In words: 50% growth inhibitory concentration (IC50) determination assay, S. aureus. Format: cell-based. Conditions: Iso-Sensitest broth, growth by OD 600 nm over 16 h, <0.098 = detection limit. The procedure, abridged: (§1)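 Compounds two-fold diluted from 50 to 0.097 μM (final) in Iso-Sensitest broth, inoculum ~5×10^5 CFU/mL. Incubation at 35±2 °C with OD600 read every 20 min over 16 h to track growth.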

Data set [2] concerns K. pneumoniae (ATCC10031). Kind of data set: 50% growth inhibitory concentration (IC50) determination assay, K. pneumoniae. The class given is cell-based. Conditions: Iso-Sensitest broth, growth by OD 600 nm over 16 h, <0.098 = detection limit. The procedure, abridged:
as §1

The test system of data set [3] is A. baumannii (ATCC17978). In words: 50% growth inhibitory concentration (IC50) determination assay, A. baumannii. To be noted: Iso-Sensitest broth, growth by OD 600 nm over 16 h, <0.098 = detection limit. Format: cell-based. The procedure, abridged:
as §1

Data set [4] can be described thus: Lyophilisation solubility assay (LYSA). Format: physicochemical. To be noted: aqueous buffer, thermodynamic from solid; 0.05 M phosphate buffer, pH 6.5; <1.0 = detection limit. The method, then:
The solubility of compounds of present invention was assessed by LYSA assay. Samples were prepared in duplicate from 10 mM DMSO stock solutions (20 μL) diluted in 30 μL pure DMSO. After evaporation of DMSO with a centrifugal vacuum evaporator, the residue was dissolved in 0.05 M phosphate buffer (150 μL, pH 6.5), which was stirred for one hour and shook for two hours. After one night, the solution was filtered using a microtiter filter plate. Then the filtrate and its 1/10 dilution were analyzed by HPLC-UV. In addition a four-point calibration curve was prepared from the 10 mM stock solutions and used for the solubility determination of the compounds.

The nature of data set [5]: Cytotoxicity assay (HepG2, CellTiter-Blue). Format: cell-based. To be noted: human; HepG2 cells, 3 days treatment; >100 = detection limit. The procedure, abridged:
(§2)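 HepG2 cells exposed to compounds for 3 days. Viability read on day 3 by CellTiter-Blue fluorescence after 3 h at 37° C. CC50 obtained from a four-parameter logistic fit.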

Data set [6] is described as follows: Single dose PK study (SDPK) in female CD-1 mouse. Format: in vivo. To be noted: IV bolus, 1.0 mg/kg solution; for clearance: plasma, read-out: CL total. As to the method:
The single dose PK in female CD-1 mouse was performed to assess compound's pharmacokinetic properties. One group of animals were dosed via bolus intravenous (IV) of the respective compound. Blood samples (approximately 30 μL) were collected via saphenous vein at 5 mins, 15 min, 30 min, 1 hr, 2 hr, 4 hr and 7 hr. For last time point (24 hr), samples were collected via cardiac puncture while the mouse was under anesthesia. Blood samples were placed into tubes containing EDTA-K2 anticoagulant (2 μL of 0.5M per tube) and centrifuged at 3000 rpm for 10 minutes at 4° C. within half an hour to separate plasma from the samples. Following centrifugation, plasma samples were stored in polypropylene tubes, quick frozen over dry ice and kept at −70±10° C. until LC/MS/MS analysis. The pharmacokinetic parameters were calculated using non-compartmental module of WinNonlin® Professional 6.4.

The test system of data set [7] is multiple species and strains. In words: microbe, parasite or virus in culture. Also noted: MIC S9 / MIC S7 / MIC S11 / MIC S8 / MIC S10: unit not given beside the values. The procedure, abridged: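 Broth microdilution per CLSI M07-A10 in CAMHB, CAMHB+3% lysed horse blood or HTM. Inoculum was set to OD600 ~0.1, then diluted 1:280 (Gram-positive) or 1:400 (Gram-negative), and plates were incubated 18-24 h at 35±2° C in ambient air. MIC (μg/mL) is the lowest concentration giving no visible growth.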

Data set [8] deals with HepG2 cells. Kind of data set: Cytotoxicity assay (HepG2, CellTiter-Blue). Format: cell-based. The procedure, abridged: as §2
[9] abbreviates: Staphylococcus aureus, ATCC29213.
Setting [10] is: Klebsiella pneumoniae, ATCC10031.
[11] abbreviates: Acinetobacter baumannii, ATCC17978.
The mark [12] stands for this setting: Acinetobacter baumannii, ATCC19606, read-out: MIC S1, A. baumannii ATCC 19606.
[13] abbreviates: Acinetobacter baumannii, ATCC51432, read-out: MIC S2, A. baumannii ATCC 51432.
Setting [14] is: Acinetobacter baumannii, ATCCBAA747, read-out: MIC S3, A. baumannii ATCC BAA-747.
Setting [15] is: Escherichia coli, ATCC25922, read-out: MIC S11, E. coli ATCC 25922.
[16] abbreviates: Escherichia coli, ATCCBAA2340, read-out: MIC S10, E. coli ATCC BAA-2340.
The mark [17] stands for this setting: Klebsiella pneumoniae, ATCC10031, read-out: MIC S4, K. pneumoniae ATCC 10031.
The mark [18] stands for this setting: Klebsiella pneumoniae, ATCC700603, read-out: MIC S5, K. pneumoniae ATCC 700603.
Where [19] appears, read: Klebsiella pneumoniae, ATCCBAA2146, read-out: MIC S6, K. pneumoniae ATCC BAA-2146.
Where [20] appears, read: Pseudomonas aeruginosa, ATCC27853, read-out: MIC S7, P. aeruginosa ATCC 27853.
Setting [21] is: Pseudomonas aeruginosa, ATCCBAA2113, read-out: MIC S8, P. aeruginosa ATCC BAA-2113.

Converted amounts (≈) assume the structure as drawn. Read-outs that look alike come from different tables or passages of the source.

For `CNc1cc(F)c(F)c2c1[nH]c1ncc(-c3ccc4ccc(C(=O)O)c(=O)n4c3)c(N3CC[C@H]4CN(C)C[C@H]43)c12` [Example 1.04, 7-[4-[(3aS,6aS)-5-methyl-2,3,3a,4,6,6a-hexahydropyrrolo[2,3-c]pyrrol-1-yl]-5,6-difluoro-8-(methylamino)-9H-pyrido[2,3-b]indol-3-yl]-4-oxo-quinolizine-3-carboxylic acid], the IC50 in data set [1] (setting [9]), in data set [2] (setting [10]) and in data set [3] (setting [11]) was < 98 nM in each case. Besides, in data set [4], the thermodynamic solubility turned out to be 460 µg/mL (≈ 845 µM). The midpoint of cytotoxicity in data set [5], the CC50 at 3 days, lay at 15000 nM. Besides, the AUC total in data set [6] came to 256 ng·h/mL. The clearance in data set [6] was determined as 64.1 mL/min/kg. In addition, the MIC in data set [7] (setting [12]) stood at 0.128 µg/mL (≈ 0.235 µM); in data set [7] (setting [13]), 0.128 µg/mL (≈ 0.235 µM); in data set [7] (setting [14]), 0.128 µg/mL (≈ 0.235 µM); in data set [7] (setting [15]), 0.048 µg/mL (≈ 0.0881 µM); in data set [7] (setting [16]), 0.258 µg/mL (≈ 0.474 µM); in data set [7] (setting [17]) it was 0.032 µg/mL (≈ 0.0588 µM). Besides, the MIC stood at 1.03 µg/mL (≈ 1.89 µM) in data set [7] (setting [18]), 1.03 µg/mL (≈ 1.89 µM) in data set [7] (setting [19]), 0.514 µg/mL (≈ 0.944 µM) in data set [7] (setting [20]) and 2.06 µg/mL (≈ 3.78 µM) in data set [7] (setting [21]). In addition, the “MIC S9” value in data set [7] (E. coli ATCC 35218) came out at 0.128.
Turning to `CNc1cc(F)cc2c1[nH]c1nc(Oc3cnc(C)nc3)nc(N3C[C@H]4C[C@@H]3C[C@H]4N)c12` [GP-6, reference compound], the IC50 in data set [1] (setting [9]), in data set [2] (setting [10]) and in data set [3] (setting [11]) was < 98 nM in each case. Moreover, the thermodynamic solubility in data set [4] was < 1 µg/mL. The CC50 at 3 days in data set [5] is 5600 nM. In data set [6], this compound gave an AUC total of 126.2 ng·h/mL. Further, in data set [6], the clearance was 132 mL/min/kg. Moreover, the MIC was 0.339 µg/mL (≈ 0.78 µM) in data set [7] (setting [12]); 0.339 µg/mL (≈ 0.78 µM) in data set [7] (setting [13]); 0.169 µg/mL (≈ 0.389 µM) in data set [7] (setting [14]); 0.127 µg/mL (≈ 0.292 µM) in data set [7] (setting [15]); 1.36 µg/mL (≈ 3.13 µM) in data set [7] (setting [16]); < 0.021 µg/mL in data set [7] (setting [17]). Also, the MIC was found to be 1.36 µg/mL (≈ 3.13 µM) in data set [7] (setting [18]), 2.71 µg/mL (≈ 6.25 µM) in data set [7] (setting [19]), 0.678 µg/mL (≈ 1.56 µM) in data set [7] (setting [20]) and 1.36 µg/mL (≈ 3.13 µM) in data set [7] (setting [21]). The “MIC S9” value in data set [7] (E. coli ATCC 35218) turned out to be 0.169.
Turning to `CNc1cc(F)c(F)c2c1[nH]c1ncc(-c3ccc4ccc(C(=O)O)c(=O)n4c3)c(N3CCC4CN(C)C[C@@H]43)c12` (stereo in doubt) [Example 1.03, 7-[5,6-difluoro-4-(cis-5-methyl-2,3,3a,4,6,6a-hexahydropyrrolo[2,3-c]pyrrol-1-yl)-8-(methylamino)-9H-pyrido[2,3-b]indol-3-yl]-4-oxo-quinolizine-3-carboxylic acid], the IC50 in data set [1] (setting [9]), in data set [2] (setting [10]) and in data set [3] (setting [11]) was < 98 nM each time. In data set [4], this compound gave a solubility (thermodynamic) of 134 µg/mL (≈ 246 µM). Also, the CC50 at 3 days in data set [5] stood at 21900 nM. In addition, the AUC total in data set [6] was found to be 374.7 ng·h/mL. Besides, the clearance in data set [6] stood at 39.1 mL/min/kg. Further, the MIC in data set [7] (setting [12]) was found to be 0.26 µg/mL (≈ 0.477 µM); in data set [7] (setting [13]), 0.26 µg/mL (≈ 0.477 µM); in data set [7] (setting [14]) it was 0.13 µg/mL (≈ 0.239 µM); in data set [7] (setting [15]), 0.193 µg/mL (≈ 0.354 µM); in data set [7] (setting [16]), 2.06 µg/mL (≈ 3.78 µM); in data set [7] (setting [17]) it was 0.03 µg/mL (≈ 0.0551 µM). The MIC in data set [7] (setting [18]) worked out at 4.12 µg/mL (≈ 7.57 µM); in data set [7] (setting [19]) it was 2.06 µg/mL (≈ 3.78 µM); in data set [7] (setting [20]), 1.03 µg/mL (≈ 1.89 µM); in data set [7] (setting [21]) it was 2.06 µg/mL (≈ 3.78 µM). In addition, the “MIC S9” value in data set [7] (E. coli ATCC 35218) was found to be 0.510.
Take “7-(5-cyano-4-(cis-(4R)-4 (dimethylamino)-3,3a,4,5,6,6a-hexahydro-1H-cyclopenta[c]pyrrol-2-yl)-6-fluoro-8-(methylamino)-9H-pyrido[2,3-b]indol-3-yl)-4-oxo-4H-quinolizine-3-carboxylic acid [Example 1.12]”: the IC50 in data set [1], in data set [2] and in data set [3] was < 98 nM throughout. The CC50 in data set [8] was > 100000 nM. For the same compound, the “MIC S9” value in data set [7] was found to be 0.541. Also, the “MIC S1” value in data set [7] (A. baumannii ATCC 19606) turned out to be 1.082. Further, the “MIC S2” value in data set [7] (A. baumannii ATCC 51432) stood at 0.541. Also, the “MIC S3” value in data set [7] (A. baumannii ATCC BAA-747) is 0.541. Besides, in data set [7] (E. coli ATCC 25922), the “MIC S11” value stood at 0.203. Further, the “MIC S10” value in data set [7] (E. coli ATCC BAA-2340) was 0.541. Also, the “MIC S4” value in data set [7] (K. pneumoniae ATCC 10031) stood at 0.068. Further, the “MIC S5” value in data set [7] (K. pneumoniae ATCC 700603) was 2.168. The “MIC S6” value in data set [7] (K. pneumoniae ATCC BAA-2146) came out at 4.335. Further, the “MIC S7” value in data set [7] (P. aeruginosa ATCC 27853) came out at 1.082. In data set [7] (P. aeruginosa ATCC BAA-2113), the “MIC S8” value came out at 2.168.

Usually IC50 stands for the concentration that inhibits the measured activity by half. Usually thermodynamic solubility stands for solubility found after equilibrating the solid with the medium. A word on the CC50: it is the concentration at which the toxic effect on the cells reaches its halfway point.
